Reference: patent publication US8349553B2, “Jasmonate based assays for identifying compounds that selectively inhibit mitochondrial bound hexokinases” (Ramot at Tel Aviv University Ltd., priority 2007, dated 2013)
Entries after “also recorded” stand apart in the source; their conditions may differ.

Tests used:
[1] = system: mitochondrial fraction of mouse liver; experiment: Mitochondrial swelling assay, mouse liver; assay type: biochemical; conditions: 1 mM
Protocol: (§1) Freshly isolated mitochondrial fraction was washed with extraction buffer to remove EDTA and resuspended in swelling buffer (Mannitol 220 mM, Sucrose 70 mM, Tris, pH 7.2, 150 mM, KH2PO4, pH 7.2, 0.2 mM; 0.2 mg in 100 μL) freshly supplemented with potassium succinate, pH 7.2, 5 mM. Every component was sodium-free. Optical density was monitored at the wave length of 540 nm for 2-5 minutes before the addition of the examined reagents, e.g. methyl jasmonate, and for additional 20 minutes afterwards.
(§2) In order to examine the consistency of the relationship between the ability of methyl jasmonate to detach bound hexokinase and mitochondrial damage, methyl jasmonate was tested in mouse brain in comparison to mouse liver. The comparison was performed due to known differences of mitochondrial hexokinase content between mouse brain vs. its liver. It is well established in the art that brain mitochondrial fraction is rich in bound hexokinase, while liver mitochondrial fraction is essentially devoid of it (Wilson, 1995). […] Mitochondrial fractions were incubated for either 10, 30 or 60 minutes at 37° C. The activity of unbound hexokinase was measured and compared to the activity of spontaneously (control) detached hexokinase. Consequently, the ability of methyl jasmonate to induce swelling in mitochondrial fraction isolated from mouse brain and liver was tested.

[2] = Fingrut, 2002, 2005, Rotem; cited from earlier work
purified rat brain HKI = target: T1, purified rat brain HKI (Rattus norvegicus, UniProt P05708); experiment: Surface plasmon resonance analysis of jasmonate-HK interactions; assay type: binding; conditions: analyte injected at varying concentrations (MJ 0.375-6 mM); 25° C.
T1 construct: from tissue; host or cells: rat brain mitochondria
T1 sequence (P05708 whole entry): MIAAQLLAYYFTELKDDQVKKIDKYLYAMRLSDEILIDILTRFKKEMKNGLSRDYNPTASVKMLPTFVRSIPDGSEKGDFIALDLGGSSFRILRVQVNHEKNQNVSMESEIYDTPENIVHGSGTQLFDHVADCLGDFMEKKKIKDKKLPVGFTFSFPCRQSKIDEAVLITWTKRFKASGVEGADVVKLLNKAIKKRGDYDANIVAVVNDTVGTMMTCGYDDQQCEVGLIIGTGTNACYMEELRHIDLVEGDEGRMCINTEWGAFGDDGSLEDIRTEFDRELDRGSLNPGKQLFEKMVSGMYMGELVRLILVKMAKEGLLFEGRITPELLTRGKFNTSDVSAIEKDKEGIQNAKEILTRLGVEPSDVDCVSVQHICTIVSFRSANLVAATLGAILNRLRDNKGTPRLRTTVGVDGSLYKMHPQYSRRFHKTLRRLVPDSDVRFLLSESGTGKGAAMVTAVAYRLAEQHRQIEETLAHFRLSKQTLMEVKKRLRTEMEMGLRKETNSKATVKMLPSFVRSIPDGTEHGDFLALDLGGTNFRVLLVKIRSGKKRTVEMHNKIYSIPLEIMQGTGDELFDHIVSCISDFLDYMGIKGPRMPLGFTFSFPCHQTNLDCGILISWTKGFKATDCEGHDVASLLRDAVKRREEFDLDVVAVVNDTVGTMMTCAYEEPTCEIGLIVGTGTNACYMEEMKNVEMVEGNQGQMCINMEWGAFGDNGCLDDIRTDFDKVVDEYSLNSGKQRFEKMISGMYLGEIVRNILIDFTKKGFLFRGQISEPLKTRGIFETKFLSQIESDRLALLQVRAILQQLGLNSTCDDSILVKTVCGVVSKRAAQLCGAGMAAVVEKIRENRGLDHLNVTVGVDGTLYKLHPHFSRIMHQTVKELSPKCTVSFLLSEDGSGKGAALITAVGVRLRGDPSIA
Protocol: Rat brain HK-I was purified as following, crude brain mitochondria containing tightly bound HK-I were incubated with 1.2 mM glucose-6-phosphate and 0.5 mM K-EDTA to release the enzyme into the soluble fraction. Further purification of HK-I was achieved by affinity chromatography on Cibacron Blue-agarose (Pharmacia). The purified enzyme was concentrated and washed in 0.5 mM K-EDTA, 10 mM glucose, 1 mM dithiothreitol and 10 mM K-Hepes, pH 7.8, using an Amicon device and a 50,000 Da molecular mass cut-off membrane (Spectrum; type C). The concentrated enzyme (up to 1 mg/ml; 30-60 units/mg) was frozen in liquid nitrogen and stored at −80° C. until use (Azoulay-Zohar, 2004).
Surface plasmon resonance (SPR) is an optical biosensor technique that measures molecular binding events at a metal surface by detecting changes in the local refractive index. SPR is the surface-sensitive technique ideal for studying interactions between immobilized biomolecules (ligands) and a solution-phase analyte. The biosensor response is directly proportional to the mass of the bound analyte. The advantage of SPR for investigation of small molecular weight analytes over conventional techniques such as fluorescence or enzyme-linked immunosorbent assay is detection of an analyte being label-free and direct, without the need for labeling of analyte or multistep detection protocols (sandwich assay). […]

hexokinase = experiment: Hexokinase activity, agent added directly to the coupled assay mixture; assay type: biochemical; conditions: coupled pyruvate kinase/lactate dehydrogenase assay, 340 nm
[3] = system: mitochondria-bound hexokinase (mitochondrial fraction from a CT-26 tumor); experiment: Hexokinase detachment assay, mitochondrial fraction of CT-26 tumor; assay type: biochemical, murine; conditions: CT-26 tumor mitochondrial fraction; 30 minutes of incubation
Protocol: Mitochondrial fraction was prepared by mechanical lysis and differential centrifugation. All stages were performed on ice. Cells or extracted tissues were washed with PBS and disrupted by homogenization in extraction buffer (Sucrose 250 mM, HEPES-NaOH 10 mM, pH 7.2) freshly supplemented with 0.1 mM EDTA and Protease Inhibitors cocktail (Sigma). For each gram of cells or tissue, 4 volumes of extraction buffer were applied. The homogenate volume was doubled with the extraction buffer, and tissue and cell debris as well as nuclei were pelleted by centrifugation of 1,000 g for 10 minutes. The supernatant was further spun at 13,000 g for 10 minutes twice. Endoplasmic reticulum layer was removed. The pellet, designated as the mitochondrial fraction, was suspended in the appropriate buffer, depending on the assay for which the mitochondrial fraction was prepared. Mitochondrial fractions were used immediately or stored at −196° C.
To determine the amount of hexokinase detached from the mitochondrial fraction by different agents, mitochondria were incubated with the agent of interest and pelleted by centrifugation. Activity of hexokinase in the supernatant (i.e., activity of the detached hexokinase) was determined spectrophotometrically at 340 nm. The reaction couples the ADP formation by hexokinase, consuming the ADP for pyruvate formation by pyruvate kinase, and reducing the pyruvate with NADH by lactate dehydrogenase. Briefly, mitochondria were suspended in incubation buffer (HEPES pH 7.4 20 mM, Sucrose 0.25M, Glucose 10 mM, KCl5 mM, MgCl2 10 mM; 0.2 mg/test, 100 μL/test) and incubated as described below. […]
Methyl jasmonate perturbs mitochondria directly in a PTPC-dependent manner (Rotem, 2005). In order to determine whether methyl jasmonate is able to detach hexokinase from mitochondrial fraction isolated from CT-26 tumors, the activity of hexokinase in the supernatant of mitochondrial fraction treated for different time periods was measured. […] The activity of unbound hexokinase was measured and compared to the activity of spontaneously detached hexokinase (control).

[4] = system: mitochondrial fraction of mouse brain; experiment: Mitochondrial swelling assay, mouse brain; assay type: biochemical; conditions: 1 mM
Protocol: as §1, §2

[5] = system: CT26 cells transfected with pcDNA3-HKII or pcDNA3; conditions: CT26; 3.75 μM; 3 hours exposure
Protocol: Cell death was determined by trypan blue exclusion. […] Alternatively, cytotoxicity was determined using hemacolor staining. Upon completion of a given experiment, cells were stained and the percentage of dead (detached) cells was determined spectrophotometrically.
CT26 cells were transfected with pcDNA3-HKII or pcDNA3, using FuGene HD transfection reagent (Roche, Basel, Switzerland), according to the manufacturer's instruction followed by selection using G418.
To examine the effect of hexokinase over-expression on methyl jasmonate action, CT26 cells were transfected with plasmids, pcDNA3-HKII or pcDNA3, encoding for hexokinase II over-expression and a control plasmid, respectively (Zaid, 2005). Cells were seeded in 96-well plates and allowed to adhere. Cells were exposed to methyl jasmonate for 60 minutes prior to ATP determination (FIG. […] 9B).

Row | SMILES | mitochondrial swelling (optical density at 540 nm) [1] | cytotoxicity relative to methyl jasmonate [2] | binding to immobilized hexokinase (SPR) (purified rat brain HKI) | influence on hexokinase activity when added directly to the assay mixture (hexokinase) | detachment of hexokinase (activity of unbound hexokinase compared to control), dose dependence [3] | mitochondrial swelling (optical density at 540 nm) [4] | cytotoxicity (hemacolor), hexokinase II over-expressing vs. control cells [5]
1 | CC/C=C\C[C@H]1C(=O)CC[C@@H]1CC(=O)O [jasmonic acid] | not in liver | lower cytotoxicity than methyl jasmonate | did not bind hexokinase at all | neither methyl jasmonate nor jasmonic acid added directly to the assay mixture, influence hexokinase activity | did not show considerable detachment of hexokinase from mitochondrial fraction; also recorded: less effective than methyl jasmonate at detaching hexokinase from mitochondrial fraction | to a marginal extent | 
2 | CN[C@@H]1C[C@H]2O[C@@](C)([C@@H]1OC)n1c3ccccc3c3c4c(c5c6ccccc6n2c5c31)C(=O)NC4 [staurosporine] |  |  |  |  |  |  | similarly decreased by hexokinase II over-expression
